# Experimental data as given in patent US5441941A, “1,2-dihydroellipticines with activity against CNS specific cancer” (The United States of America as represented by the …, priority 1993, dated 1995).
# How the values were obtained:
# RPMI-8226 = assay: cells; conditions: Homo sapiens
# MALME-3M = assay: NCI in vitro screen, SRB percent growth, Melanoma
# U251 = assay: NCI in vitro screen, SRB percent growth, CNS Cancer
# M19-MEL = assay: NCI in vitro screen, SRB percent growth, Melanoma
# A549/ATCC = assay: NCI in vitro screen, SRB percent growth, Non-Small Cell Lung Cancer
# SF-268 = assay: NCI in vitro screen, SRB percent growth, CNS Cancer
# DLD-1 = assay: cells; conditions: Homo sapiens
# HCT-116 = assay: NCI in vitro screen, SRB percent growth, Colon Cancer
# TK-10 = assay: NCI in vitro screen, SRB percent growth, Renal Cancer
# K-562 = assay: NCI in vitro screen, SRB percent growth, Leukemia
# SF-295 = assay: NCI in vitro screen, SRB percent growth, CNS Cancer
# DMS 114 = assay: cells; conditions: Homo sapiens
# LXFL 529 = assay: cells; conditions: Homo sapiens
# CNS cancer cell lines = assay: NCI in vitro screen, overall result on CNS cancer cell lines; conditions: Tables I and II
# HT29 = assay: NCI in vitro screen, SRB percent growth, Colon Cancer
# HL-60 (TB) = assay: NCI in vitro screen, SRB percent growth, Leukemia
# SK-OV-3 = assay: NCI in vitro screen, SRB percent growth, Ovarian Cancer
# [1] = RPMI-8226, read-out: Percent Growth
# [2] = Log10 Concentration -4.0, 100 µM
# [3] = Log10 Concentration -7.0, 0.1 µM
# [4] = DLD-1, read-out: Percent Growth
# [5] = LXFL 529, read-out: Percent Growth
smiles,measurement,setting,value
Cc1ccc2[nH]c3c(C)c4c(c(C)c3c2c1)CN(C)C=C4 [Formula XI],GI50,RPMI-8226; RPMI-8226,6.81 µM
same,CC50,"RPMI-8226; RPMI-8226, read-out: LC-50",> 100 µM
same,activity at 0.01 µM,RPMI-8226; [1],109%
same,activity at 0.1 µM,RPMI-8226; [1],106%
same,activity at 1 µM,RPMI-8226; [1],103%
same,activity at 10 µM,RPMI-8226; [1],39%
same,activity at 100 µM,RPMI-8226; [1],-27%
same,IC (TGI),"RPMI-8226; RPMI-8226, read-out: TGI",39.3 µM
same,Percent Growth,MALME-3M; [2],-86%
same,Percent Growth,MALME-3M; Log10 Concentration -5.0,-40%
same,Percent Growth,"MALME-3M; Log10 Concentration -6.0, 1 µM",78%
same,Percent Growth,MALME-3M; [3],115%
same,Percent Growth,MALME-3M; Log10 Concentration -8.0,113%
same,TGI,MALME-3M; PG=0,4.58 µM
same,GI50,MALME-3M; PG=+50,1.72 µM
same,CC50,"MALME-3M; read-out: LC-50, PG=-50",16.4 µM
same,Percent Growth,U251; Log10 Concentration -5.0,-72%
same,Percent Growth,"U251; Log10 Concentration -6.0, 1 µM",3%
same,Percent Growth,U251; [3],89%
same,Percent Growth,U251; Log10 Concentration -8.0,99%
same,TGI,U251; PG=0,1.1 µM
same,GI50,U251; PG=+50,0.286 µM
same,CC50,"U251; read-out: LC-50, PG=-50",5.12 µM
same,Percent Growth,M19-MEL; [2],-93%
same,Percent Growth,M19-MEL; Log10 Concentration -5.0,-91%
same,Percent Growth,"M19-MEL; Log10 Concentration -6.0, 1 µM",38%
same,Percent Growth,M19-MEL; [3],93%
same,Percent Growth,M19-MEL; Log10 Concentration -8.0,94%
same,TGI,M19-MEL; PG=0,1.98 µM
same,GI50,M19-MEL; PG=+50,0.605 µM
same,CC50,"M19-MEL; read-out: LC-50, PG=-50",4.83 µM
same,Percent Growth,A549/ATCC; [2],-66%
same,Percent Growth,A549/ATCC; Log10 Concentration -5.0,-15%
same,Percent Growth,"A549/ATCC; Log10 Concentration -6.0, 1 µM",33%
same,Percent Growth,A549/ATCC; [3],86%
same,Percent Growth,A549/ATCC; Log10 Concentration -8.0,96%
same,TGI,A549/ATCC; PG=0,4.9 µM
same,GI50,A549/ATCC; PG=+50,0.469 µM
same,CC50,"A549/ATCC; read-out: LC-50, PG=-50",48.5 µM
same,Percent Growth,SF-268; [2],-83%
same,Percent Growth,SF-268; Log10 Concentration -5.0,-94%
same,Percent Growth,"SF-268; Log10 Concentration -6.0, 1 µM",-39%
same,Percent Growth,SF-268; [3],96%
same,Percent Growth,SF-268; Log10 Concentration -8.0,101%
same,TGI,SF-268; PG=0,0.514 µM
same,GI50,SF-268; PG=+50,0.218 µM
same,CC50,"SF-268; read-out: LC-50, PG=-50",1.6 µM
same,GI50,DLD-1; DLD-1,1.48 µM
same,CC50,"DLD-1; DLD-1, read-out: LC-50",59 µM
same,activity at 0.01 µM,DLD-1; [4],102%
same,activity at 0.1 µM,DLD-1; [4],93%
same,activity at 1 µM,DLD-1; [4],58%
same,activity at 10 µM,DLD-1; [4],13%
same,activity at 100 µM,DLD-1; [4],-69%
same,IC (TGI),"DLD-1; DLD-1, read-out: TGI",14.5 µM
same,Percent Growth,HCT-116; [2],-81%
same,Percent Growth,HCT-116; Log10 Concentration -5.0,3%
same,Percent Growth,"HCT-116; Log10 Concentration -6.0, 1 µM",83%
same,Percent Growth,HCT-116; [3],103%
same,Percent Growth,HCT-116; Log10 Concentration -8.0,113%
same,TGI,HCT-116; PG=0,10.9 µM
same,GI50,HCT-116; PG=+50,2.58 µM
same,CC50,"HCT-116; read-out: LC-50, PG=-50",42.8 µM
same,Percent Growth,TK-10; [2],-93%
same,Percent Growth,TK-10; Log10 Concentration -5.0,49%
same,Percent Growth,"TK-10; Log10 Concentration -6.0, 1 µM",90%
same,Percent Growth,TK-10; [3],101%
same,Percent Growth,TK-10; Log10 Concentration -8.0,103%
same,TGI,TK-10; PG=0,22.1 µM
same,GI50,TK-10; PG=+50,9.46 µM
same,CC50,"TK-10; read-out: LC-50, PG=-50",49.6 µM
same,Percent Growth,K-562; [2],2%
same,Percent Growth,K-562; Log10 Concentration -5.0,6%
same,Percent Growth,"K-562; Log10 Concentration -6.0, 1 µM",53%
same,Percent Growth,K-562; [3],83%
same,Percent Growth,K-562; Log10 Concentration -8.0,95%
same,TGI,K-562; PG=0,> 100 µM
same,GI50,K-562; PG=+50,1.17 µM
same,CC50,"K-562; read-out: LC-50, PG=-50",> 100 µM
same,Percent Growth,SF-295; [2],-91%
same,Percent Growth,SF-295; Log10 Concentration -5.0,-31%
same,Percent Growth,"SF-295; Log10 Concentration -6.0, 1 µM",23%
same,Percent Growth,SF-295; [3],87%
same,Percent Growth,SF-295; Log10 Concentration -8.0,92%
same,TGI,SF-295; PG=0,2.68 µM
same,GI50,SF-295; PG=+50,0.381 µM
same,CC50,"SF-295; read-out: LC-50, PG=-50",20.7 µM
same,GI50,DMS 114; DMS-114,0.414 µM
same,IC (TGI),"DMS 114; DMS-114, read-out: TGI",2.12 µM
same,GI50,LXFL 529; LXFL 529,0.353 µM
same,CC50,"LXFL 529; LXFL 529, read-out: LC-50",9.23 µM
same,activity at 0.01 µM,LXFL 529; [5],78%
same,activity at 0.1 µM,LXFL 529; [5],68%
same,activity at 1 µM,LXFL 529; [5],35%
same,activity at 10 µM,LXFL 529; [5],-53%
same,activity at 100 µM,LXFL 529; [5],-84%
same,IC (TGI),"LXFL 529; LXFL 529, read-out: TGI",2.51 µM
same,effect against CNS cancer cell lines,CNS cancer cell lines,particularly effective against CNS cancer cell lines
same,Percent Growth,HT29; [2],-93%
same,Percent Growth,HT29; Log10 Concentration -5.0,4%
same,Percent Growth,"HT29; Log10 Concentration -6.0, 1 µM",82%
same,Percent Growth,HT29; [3],95%
same,Percent Growth,HT29; Log10 Concentration -8.0,99%
same,TGI,HT29; PG=0,11.1 µM
same,GI50,HT29; PG=+50,2.57 µM
same,CC50,"HT29; read-out: LC-50, PG=-50",36 µM
same,Percent Growth,HL-60 (TB); [2],-30%
same,Percent Growth,HL-60 (TB); Log10 Concentration -5.0,25%
same,Percent Growth,"HL-60 (TB); Log10 Concentration -6.0, 1 µM",102%
same,Percent Growth,HL-60 (TB); Log10 Concentration -8.0,111%
same,TGI,HL-60 (TB); PG=0,28.7 µM
same,GI50,HL-60 (TB); PG=+50,4.8 µM
same,CC50,"HL-60 (TB); read-out: LC-50, PG=-50",> 100 µM
same,Percent Growth,SK-OV-3; [2],-58%
same,Percent Growth,SK-OV-3; Log10 Concentration -5.0,-16%
same,Percent Growth,"SK-OV-3; Log10 Concentration -6.0, 1 µM",36%
same,Percent Growth,SK-OV-3; [3],59%
same,Percent Growth,SK-OV-3; Log10 Concentration -8.0,87%
same,TGI,SK-OV-3; PG=0,4.87 µM
same,GI50,SK-OV-3; PG=+50,0.25 µM
same,CC50,"SK-OV-3; read-out: LC-50, PG=-50",63.3 µM
